Measured values: patent US12678413B2, “Compositions containing pterosin compound and derivatives thereof active ingredients for prevention or treatment of degenerative brain diseases” (priority 2017, dated 2026)
Like-named read-outs stand apart in the source and are kept apart here.

How the values were obtained:
[1] = target: T1, acetylcholinesterase (AChE) (Electrophorus electricus, UniProt O42275); experiment: In vitro cholinesterase activity assay (Ellman), AChE; assay type: biochemical; settings: for IC50: concentrations up to 125 μM, Mean ± SEM, read-out: IC50 Acetylcholine Esterase Mean ± SEM; for SI: selectivity index (BChE/AChE): ratio of IC50 BChE/AChE
T1 construct: purchased Sigma-Aldrich Co. (St. Louis, MO, USA)
T1 sequence (O42275 24-633): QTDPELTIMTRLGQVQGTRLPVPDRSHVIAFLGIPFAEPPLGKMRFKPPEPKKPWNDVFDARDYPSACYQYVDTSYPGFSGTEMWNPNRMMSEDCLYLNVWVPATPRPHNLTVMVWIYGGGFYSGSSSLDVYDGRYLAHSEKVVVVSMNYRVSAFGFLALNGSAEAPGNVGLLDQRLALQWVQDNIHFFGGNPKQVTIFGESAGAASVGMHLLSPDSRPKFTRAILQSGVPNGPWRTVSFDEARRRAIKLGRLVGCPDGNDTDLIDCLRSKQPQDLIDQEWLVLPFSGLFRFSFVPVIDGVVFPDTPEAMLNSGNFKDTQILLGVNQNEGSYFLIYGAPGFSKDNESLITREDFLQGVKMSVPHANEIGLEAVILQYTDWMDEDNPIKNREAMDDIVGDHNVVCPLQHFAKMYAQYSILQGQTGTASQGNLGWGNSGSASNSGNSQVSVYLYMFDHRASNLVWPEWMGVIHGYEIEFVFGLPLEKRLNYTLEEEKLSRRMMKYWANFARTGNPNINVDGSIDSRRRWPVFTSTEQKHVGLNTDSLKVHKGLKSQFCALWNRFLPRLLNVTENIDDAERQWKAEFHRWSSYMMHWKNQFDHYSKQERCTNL
Experimental: (§1) The reaction started with the addition of 10 μL of DTNB and 10 μL of Ach or Bch.
(§2) Briefly, the basis for this assay is the hydrolysis of acetylthiocholine by acetylcholinesterase, producing thiocholine that reacts with DTNB. […] Degrees of inhibition were calculated according to […] wherein E and S represent enzyme activities in the presence and absence of a test sample, respectively.
(§3) The compounds of Table 1 were evaluated for anti-Alzheimer activity. In this regard, inhibitory activity against AChE (acetylcholinesterase) and BChE (butyrylcholinesterase), which lyse acetylcholine in the central nervous system, was measured according to the Experimental Method to calculate IC(inhibition concentrations)50 values.

NIH3T3 cells = experiment: MTT cytotoxicity assay, normal cell line NIH3T3; assay type: cell-based; settings: NIH3T3 mouse embryo fibroblast, 48 hours incubation
Experimental: (§4) The normal cell line NIH3T3 (mouse embryo fibroblast cell-line) and the cancerous cell line B16F10 (mouse melanoma cell-line) were separately grown in 96-well plates and incubated for 48 hours with predetermined concentrations of each of the compounds. After additional incubation with MTT, absorbance at 550 nm was read using a microplate reader. Absorbance is an index accounting for a number of viable cells and was used to calculate cell proliferation rates according to the following formula. All experiments were conducted three times for reproducibility. Cell proliferation rate (%)=OD550(sample)/OD550(control)
(§5) Then, LD50 (Lethal Dose 50) values were calculated on the basis of changes in the cell proliferation rate.

B16F10 cells = experiment: MTT cytotoxicity assay, cancerous cell line B16F10; assay type: cell-based; settings: B16F10 mouse melanoma, 48 hours incubation
Experimental: as §4, §5

BACE1 = target: T2, BACE1 (Homo sapiens, UniProt P56817); experiment: BACE1 enzyme kinetics (Dixon plot and Lineweaver plot); assay type: biochemical
T2 construct: purchased Pan Vera Co. (Madison, WI, USA)
T2 sequence (P56817 46-501): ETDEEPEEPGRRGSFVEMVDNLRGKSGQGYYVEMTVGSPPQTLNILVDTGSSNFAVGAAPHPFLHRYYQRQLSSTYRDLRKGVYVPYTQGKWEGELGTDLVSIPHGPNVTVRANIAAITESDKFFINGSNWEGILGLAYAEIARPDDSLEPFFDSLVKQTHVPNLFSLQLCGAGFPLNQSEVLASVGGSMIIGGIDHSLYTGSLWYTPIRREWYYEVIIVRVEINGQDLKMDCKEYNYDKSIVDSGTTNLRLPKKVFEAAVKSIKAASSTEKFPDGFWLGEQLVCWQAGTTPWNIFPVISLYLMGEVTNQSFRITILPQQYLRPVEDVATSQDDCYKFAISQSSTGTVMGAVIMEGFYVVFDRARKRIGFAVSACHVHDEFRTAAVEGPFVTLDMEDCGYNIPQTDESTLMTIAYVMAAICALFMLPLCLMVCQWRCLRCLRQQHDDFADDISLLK
Experimental: A BACE1 fluorescence resonance energy transfer (FRET) assay kit (β-secretase, recombinant human enzyme) was purchased from Pan Vera Co. (Madison, WI, USA). The assay was carried out according to the manual provided, with a modification made thereto as described by Jung et al. (Jung et al., Biol Pharm Bull, 2010, 33:267-272). Quercetin was used as a positive control.
In addition, an enzyme kinetics experiment was conducted using the Lineweaver plot and Dixon plot (see FIG. 7) in order to examine the BACE1 inhibition mechanism of the novel compound (Compound 2). […] The results of the experiment indicate that the novel compound of the present disclosure is a very potent inhibitor against BACE1.

[2] = target: T3, butyrylcholinesterase (BChE) (Equus caballus, UniProt P81908); experiment: In vitro cholinesterase activity assay (Ellman), BChE; assay type: biochemical; settings: concentrations up to 125 μM; Mean ± SEM; read-out: IC50 Butyrylcholine esterase Mean ± SEM
T3 construct: horse serum butyrylcholinesterase (BChE, EC3.1.1.8); purchased Sigma-Aldrich Co. (St. Louis, MO, USA); host or cells: horse serum
T3 sequence (P81908 whole entry): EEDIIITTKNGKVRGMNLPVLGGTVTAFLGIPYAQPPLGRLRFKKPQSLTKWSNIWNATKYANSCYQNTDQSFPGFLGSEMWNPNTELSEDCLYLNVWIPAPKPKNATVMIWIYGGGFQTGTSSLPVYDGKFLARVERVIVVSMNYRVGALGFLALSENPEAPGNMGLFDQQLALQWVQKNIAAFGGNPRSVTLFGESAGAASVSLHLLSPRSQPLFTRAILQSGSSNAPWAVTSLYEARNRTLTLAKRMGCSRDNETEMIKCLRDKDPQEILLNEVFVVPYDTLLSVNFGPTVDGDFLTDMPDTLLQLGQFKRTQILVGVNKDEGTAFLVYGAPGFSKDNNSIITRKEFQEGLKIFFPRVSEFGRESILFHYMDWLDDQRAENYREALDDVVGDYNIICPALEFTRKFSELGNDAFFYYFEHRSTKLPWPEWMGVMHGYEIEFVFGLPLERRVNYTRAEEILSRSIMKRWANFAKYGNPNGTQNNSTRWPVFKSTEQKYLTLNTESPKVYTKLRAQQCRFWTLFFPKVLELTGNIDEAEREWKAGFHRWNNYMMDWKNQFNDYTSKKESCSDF
Experimental: as §1, §2, §3

[3] = target: T1, acetylcholinesterase (AChE); experiment: AChE enzyme kinetics (Dixon plot and Lineweaver plot); assay type: biochemical
Experimental: as §1, §2

[4] = target: T3, butyrylcholinesterase (BChE); experiment: BChE enzyme kinetics (Dixon plot and Lineweaver plot); assay type: biochemical
Experimental: as §1, §2

[5] = target: T4, BACE1 (β-secretase, recombinant human enzyme) (Homo sapiens, UniProt P56817); experiment: In vitro BACE1 activity assay (FRET kit); assay type: biochemical; settings: compounds in 10% DMSO, concentrations up to 125 μM
T4 construct: purchased Pan Vera Co. (Madison, WI, USA)
T4 sequence (P56817 46-501): as the sequence (P56817 46-501) above
Excerpt: BACE1 (beta-secretase) FRET assay kit was purchased from Pan Vera Co. (Madison, WI, USA). All the chemicals and solvents used in column chromatography were of reagent grade and were used as received without further purification.
A BACE1 fluorescence resonance energy transfer (FRET) assay kit (β-secretase, recombinant human enzyme) was purchased from Pan Vera Co. (Madison, WI, USA).
BACE1 is an enzyme promotive of the production of β-amyloid, which destroys neurons. In order to examine the effects on the compounds of Table 1 on the activity of BACE1, IC(inhibition concentrations)50 values were determined by measuring BACE1 activity in vitro according to Experimental Methods.

[6] = listed as 3-[2-(1-acetylcycloproply)-1-propenyl]-5-methyl-2-cyclopenten-1-one

SMILES | IC50 [1] [µM] | LD50 Normal cell NIH3T3 (NIH3T3 cells) | LD50 Cancer cell B16F10 (B16F10 cells) | SI: selectivity index (BChE/AChE) [1] | Ki (BACE1) [µM] | IC50 [2] [µM] | other results
COc1ccc2cc3[n+](cc2c1OC)CCc1cc2c(cc1-3)OCO2 [Berberine, reference compound] | 0.39 ± 0.01 |  |  |  |  |  | 
CC(=O)C1(/C(C)=C\C2=CC(=O)C(C)C2)CC1 (stereo not drawn) [Compound 2, 3-[2-(1-Acetylcyclopropyl)-1-propenyl)-5-methyl-2-cyclopenten-1-one] |  | 1,550 μM | 688 µM | 0.83 | 19 |  | LD50 Normal cell NIH3T3 (NIH3T3 cells; [6]): 1,550 ± 100 μM; LD50 Cancer cell B16F10 (B16F10 cells; [6]): 688 ± 17 µM; Inhibition type BACE1 (BACE1; [6]): Mixed-type; Inhibition type BACE1 (BACE1; listed as novel compound): mixed type
Cc1cc2c(c(C)c1CCO)C(=O)[C@](C)(CO)C2 [Compound 3, (2S)-pterosin A] |  | >5,000 μM |  | 1.2 |  |  | LD50 Cancer cell B16F10 (B16F10 cells; listed as (2S)-Pterosin A): 522 ± 25 µM; LD50 Cancer cell B16F10 (B16F10 cells; listed as pterosin A): 522 ± 25 µM
Cc1cc2c(c(C)c1CCO)C(=O)[C@H](C)C2 [Compound 4, (2R)-pterosin B] | 16.2 ± 1 |  | >5,000 μM | 3.0 | 38.3 | 48.1 ± 0.59 | LD50 Normal cell NIH3T3 (NIH3T3 cells; listed as (2,R)-Pterosin B): 3,110 ± 130 μM; LD50 Normal cell NIH3T3 (NIH3T3 cells; listed as pterosin B): 3,110±130 μM; Inhibition type BACE1 (BACE1): noncompetitive type; Inhibition type BACE1 (BACE1; listed as (2R)-Pterosin B): Noncompetitive; Inhibition type Acetylcholinesterase [3]: mixed type; Ki [3]: 12.1 µM; Inhibition type Acetylcholinesterase ([3]; listed as (2R)-Pterosin B): Mixed-type; Inhibition type Butyrylcholinesterase [4]: noncompetitive type; Ki [4]: 53.5 µM; Inhibition type Butyrylcholinesterase ([4]; listed as (2R)-Pterosin B): Noncompetitive
Cc1cc2c(c(C)c1CCO)C(=O)[C@H](C)[C@@H]2O [Compound 5, (2R,3S)-pterosin C] |  | >5,000 μM | >5,000 μM |  |  |  | 
Cc1cc2c(c(C)c1CCO)C(=O)[C@@H](C)[C@@H]2O [Compound 6, (2S,3S)-pterosin C] |  | >5,000 μM | >5,000 μM |  |  |  | 
Cc1cc2c(c(C)c1CCO)C(=O)[C@H](C)[C@H]2O [Compound 7, (2R,3R)-pterosin C] | 23.2 ± 4.6 | >5,000 μM | >5,000 μM | 0.89 | 27.6 | 20.3 ± 0.88 | Inhibition type BACE1 (BACE1): mixed type; Inhibition type BACE1 (BACE1; listed as (2R,3R)-Pterosin C): Mixed-type; Inhibition type Acetylcholinesterase [3]: noncompetitive type; Ki [3]: 29.6 µM; Inhibition type Acetylcholinesterase ([3]; listed as (2R,3R)-Pterosin C): Noncompetitive; Inhibition type Butyrylcholinesterase [4]: mixed type; Ki [4]: 4.77 µM; Inhibition type Butyrylcholinesterase ([4]; listed as (2R,3R)-Pterosin C): Mixed-type
Cc1cc2c(c(C)c1CCO)C(=O)[C@@H](C)[C@H]2O [Compound 8, (2S,3R)-pterosin C] | 12.8 ± 0.79 | >5,000 μM | >5,000 μM | 3.5 | 33.8 | 44.3 ± 1 | Inhibition type BACE1 (BACE1): noncompetitive type; Inhibition type BACE1 (BACE1; listed as (2S,3R)-Pterosin C): Noncompetitive; Inhibition type Acetylcholinesterase [3]: mixed type; Ki [3]: 16.3 µM; Inhibition type Acetylcholinesterase ([3]; listed as (2S,3R)-Pterosin C): Mixed-type; Inhibition type Butyrylcholinesterase [4]: noncompetitive type; Ki [4]: 29.9 µM; Inhibition type Butyrylcholinesterase ([4]; listed as (2S,3R)-Pterosin C): Noncompetitive
Cc1cc2c(c(C)c1CCO)C(=O)C(C)(C)[C@@H]2O [Compound 9, (3R)-Pterosin D] | 68.7 ± 3.7 | >5,000 μM | >5,000 μM |  |  | > 125 | 
Cc1c(CCO)c(CO)cc2c1C(=O)[C@@H](C)C2 [Compound 10, (2S)-pterosin P] | 17.8 ± 0.62 | >5,000 μM | >5,000 μM | 3.1 |  | 55.9 ± 5.6 | 
Cc1cc2c(c(C)c1CCO)C(=O)C(C)(C)C2 [Compound 11, pterosin Z] | 46.5 ± 3.4 |  |  | 1.7 |  | 80.1 ± 6.8 | LD50 Normal cell NIH3T3 (NIH3T3 cells; listed as PterosinZ): 553 ± 37 µM; LD50 Normal cell NIH3T3 (NIH3T3 cells; listed as pterosin Z): 553 ± 37 µM; LD50 Cancer cell B16F10 (B16F10 cells; listed as PterosinZ): 618 ± 71 µM; LD50 Cancer cell B16F10 (B16F10 cells; listed as pterosin Z): 618 ± 71 µM
Cc1cc2c(c(C)c1CCO)C(=O)[C@](C)(COC1O[C@H](CO)[C@@H](O)[C@H](O)[C@H]1O)C2 (stereo partly drawn) [Compound 13, (2S)-pteroside A2] | 39.3 ± 1.9 | >5,000 μM | >5,000 μM | 3.0 |  |  | 
Cc1cc2c(c(C)c1CCO[C@@H]1OC(CO)[C@@H](O)[C@H](O)C1O)C(=O)[C@@H](C)[C@H]2O (stereo partly drawn) [Compound 15, (2S,3R)-pteroside C] |  | >5,000 μM | >5,000 μM | 1.4 |  |  | IC50 [5]: 28.9 ± 2.2 µM
Cc1cc2c(c(C)c1CCO[C@@H]1OC(CO)[C@@H](O)[C@H](O)C1O)C(=O)[C@H](C)[C@H]2O (stereo partly drawn) [Compound 16, (2R,3R)-pteroside C] |  | >5,000 μM | >5,000 μM | 1.4 | 12.6 |  | IC50 [5]: 9.74 ± 1.9 µM; Inhibition type BACE1 (BACE1): mixed type; Inhibition type BACE1 (BACE1; listed as (2R,3R)-Pteroside C): Mixed-type
Cc1cc2c(c(C)c1CCO[C@@H]1OC(CO)[C@@H](O)[C@H](O)C1O)C(=O)C(C)(C)C2 (stereo partly drawn) [Compound 20, pteroside Z] | 22.4 ± 2.2 | >5,000 μM | >5,000 μM | 0.24 |  |  | IC50 [5]: 60 ± 4.3 µM
